Literature values in patent US20120245518A1, “PHARMACEUTICAL COMPOSITION FOR THE TREATMENT OF BLADDER DISORDERS” (Ritcher Gedeon NYRT., priority 2009, published 2012).

System: matrix metalloproteinases, particularly the MMP-9

**Q.** Which “inhibitory effect on matrix metalloproteinases, particularly MMP-9” value does the source give for sodium hyaluronate here?
**A.** does not show the latter effect
